US4513001A, “β-Adrenergic 1-[1-benzimidazolyl]-N-[2-(4-hydroxy-3-methoxy-phenyl)-2-hydroxy-ethyl]- 3-amino butane and salts and hydrates thereof” (priority 1982, dated 1985)
Where two headings read alike, the source gives them in different places.

Tests used:
[1] = Acute toxicity in the mouse, intravenous; conditions: in vivo
Description: These two compounds were the subject of an acute toxicity study in the mouse.
The two compounds had similar toxicity and the pharmacological study was able, indifferently, to be carried out with one or the other, the results being, in the two cases, expressed by weight of base per kg of body weight for the in vivo tests and in molar concentration for the in vitro tests.

uterine horn = assay: Uterus relaxing activity in vivo (ocytocine-induced contractions); conditions: rat, i.v.; compound A 16.8 μg/kg vs salbutamol 24.9 μg/kg
Method: The test was carried out also in the rat.
The aminal was anesthesied by ethyl carbamate.
The contractions caused in an exposed uterine horn immersed in a nutrient bath were recorded (bath: RINGER-LOCKE modified by GADDUM and VOGT). These contractions were induced by the intravenous injection of ocytocine, at the dose of 0.1 IU per kg.
After a control recording of the effects of the latter, the compound A or the Salbutamol were administered intravenously and the further ocytocine injection was carried out; its effect was compared with that of the control reaction.

heart rate [2] = assay: β-stimulant specificity: heart rate of the anesthetised dog, antagonism of compound A tachycardia by acebutolol; assay type: in vivo
Description: The results below are the averages of the values obtained in 3 dogs.

heart rate [3] = assay: Heart rate of the un-anesthetised dog, oral; assay type: in vivo, Beagle dog
[4] = T0 + 1 min, perfusion compound A 4.2 μg/kg/min, T0: 157
[5] = T1 + 4 h 1 min, second perfusion compound A after acebutolol
[6] = T1 + 4 h 2 min, second perfusion compound A after acebutolol
[7] = T1 + 4 h 4 min, second perfusion compound A after acebutolol
[8] = T1 + 4 h 6 min, second perfusion compound A after acebutolol

For `COc1cc(C(O)CNC(C)CCn2cnc3ccccc32)ccc1O` (stereo not drawn) [Compound A, 1-[1-benzimidazolyl]-N-[2-(4-hydroxy-3-methoxy-phenyl)2-hydroxy-ethyl]3-amino butane basic sulphate, dihydrate], the LD50 ([1]; as base, confidence limits printed, read-out: LD50 expressed as base) was 96 mg/kg, the LD50 ([1]; by weight of product, confidence limits p=0.05 printed, read-out: LD50) was 114 mg/kg and the “Inhibiting activity on ocytocine-induced uterine contractions (comparison with Salbutamol)” value (uterine horn) was “inhibiting activity comparable with that of salbutamol”. The Heart rate (heart rate [2]; [4]) was 180 beats/min, the Heart rate variation (heart rate [2]; [4]) was “+23” and the Heart rate variation (heart rate [2]; T0 + 2 min, perfusion compound A) was “+40”. For the same compound, the Heart rate (heart rate [2]; T0 + 2 min, perfusion compound A, T0: 157) was 197 beats/min, the Heart rate variation (heart rate [2]; T0 + 4 min, perfusion compound A) was “+45” and the Heart rate (heart rate [2]; T0 + 4 min, perfusion compound A, T0: 157) was 202 beats/min. For the same compound, the Heart rate variation (heart rate [2]; T0 + 6 min = T1, perfusion compound A) was “+48”, the Heart rate (heart rate [2]; T0 + 6 min = T1, perfusion compound A, T0: 157) was 205 beats/min and the Heart rate (heart rate [2]; [5]) was 146 beats/min. For the same compound, the Heart rate variation (heart rate [2]; [5]) was -11, the Heart rate (heart rate [2]; [6]) was 155 beats/min and the Heart rate variation (heart rate [2]; [6]) was -2. For the same compound, the Heart rate (heart rate [2]; [7]) was 160 beats/min, the Heart rate variation (heart rate [2]; [7]) was “+3” and the Heart rate (heart rate [2]; [8]) was 160 beats/min. The Heart rate variation (heart rate [2]; [8]) was “+3”.

In the case of `CC(C)(C)NCC(O)c1ccc(O)c(CO)c1` (stereo not drawn) [Salbutamol, reference compound], the “Heart rate, average” value (heart rate [3]; 25 μg base/kg, 15 min, time 0: 92, 12 dogs) is reported as 142, the “Heart rate, average” value (heart rate [3]; 25 μg base/kg, 30 min, time 0: 92) is reported as 165 and the “Heart rate, average” value (heart rate [3]; 25 μg base/kg, 1 h, time 0: 92) is reported as 170. For the same compound, the “Heart rate, average” value (heart rate [3]; 25 μg base/kg, 2 h, time 0: 92) was 156, the “Heart rate, average” value (heart rate [3]; 25 μg base/kg, 3 h, time 0: 92) was 137 and the “Heart rate, average” value (heart rate [3]; 25 μg base/kg, 4 h, time 0: 92) was 130. For the same compound, the “Heart rate, average” value (heart rate [3]; 25 μg base/kg, 5 h, time 0: 92) was 120, the “Heart rate, average” value (heart rate [3]; 83 μg base/kg, 15 min, time 0: 90, 12 dogs) was 163 and the “Heart rate, average” value (heart rate [3]; 83 μg base/kg, 30 min, time 0: 90) was 194. The “Heart rate, average” value (heart rate [3]; 83 μg base/kg, 1 h, time 0: 90) was 197, the “Heart rate, average” value (heart rate [3]; 83 μg base/kg, 2 h, time 0: 90) was 195 and the “Heart rate, average” value (heart rate [3]; 83 μg base/kg, 3 h, time 0: 90) was 172. For the same compound, the “Heart rate, average” value (heart rate [3]; 83 μg base/kg, 4 h, time 0: 90) was 150, the “Heart rate, average” value (heart rate [3]; 83 μg base/kg, 5 h, time 0: 90) was 148 and the “Heart rate, average” value (heart rate [3]; 83 μg base/kg, 6 h, time 0: 90) was 141. For the same compound, the “Heart rate, average” value (heart rate [3]; 83 μg base/kg, 7 h, time 0: 90) was 138 and the “Tachycardiac activity (comparison with Salbutamol)” value (heart rate [3]; un-anesthetised dog, in words) was “more active than compound B: the effect of the low dose of Salbutamol is equal to that of the high dose of compound B”.
